From patent publication US20120041195A1, “Heterocyclic compounds” (FOVEA PHARMACEUTICALS, priority 2009, published 2012)

Experiments:
[1] = tested on: VEGF-induced blood-retinal barrier breakdown; experiment: Inhibition of vascular leakage in a rat model of blood-retinal barrier breakdown; format: in vivo; conditions: intravitreal VEGF164 100 ng, 0.58% (5.8 mg/ml buffer pH 5) topical 10 μl six times over 27 h, Evans blue in retina
Description: We investigated the efficacy of topical administration of compound 5 of the invention in reducing the retinal leakage in a VEGF-induced blood-retinal barrier breakdown in the rat. Rats were treated by a single intravitreal injection of 5 μl (100 ng) recombinant rat VEGF164 (RD systems) into each eye.
During twenty-seven hours following VEGF injection, 0.58% test compound 5 of the invention (5.8 mg/ml buffer pH 5) and control without compound of the invention were administered six times by topical administration (10 μl) in eyes of sixteen rats.
Twenty-seven hours after the VEGF challenge, Evans blue dye (45 mg/kg) was injected intravenously and the dye was allowed to circulate during two hours.
Then, each rat was infused with 0.05M citrate buffer pH 3.5 (37° C.) for 2 minutes to allow clearance of the dye. Immediately after said perfusion, both eyes were enucleated and Evans blue dye was extracted by incubating each retina in formamide (Qaum et al Invest. Ophthalmol. Vis. Sci. 2001, Vol 42, No 10). Afterward, the absorbance was measured with a spectrophotometer at 620 nm.
Breakdown of the blood-retinal barrier was proportional to the concentration of Evans blue in the retina normalized by Evans blue concentrations in the plasma.

Colour of compound = format: physicochemical
[2] = Solubility in aqueous medium (buffer pH 5); format: physicochemical; conditions: acetic acid/KOH buffer pH 5, stirred 24 h at room temperature, HPLC/UV of supernatant
Description: Solubility of Compounds was determined in aqueous medium using the following procedure.
Two mg of Compound (2 mg) was added to 200 μl buffer (acetic acid/KOH) solution at pH 5. Solution was then stirred for 24 h at room temperature and then centrifuged 10 min at 16,000 rpm. Corresponding supernatants were analyzed by HPLC and UV detection. Calculation of a given Compound concentration was performed by reporting area under the experimental slope onto a calibration slope obtained separately using DMSO-solubilised Compound at different concentrations.

| Colour (Colour of compound) | Soiubility (pH 5) in mg/ml [2] [mg/ml] | Solubility (pH 5) in % [2] [%] | Structure (SMILES) | reduction of vascular leakage compared to control [1] [%] |
| --- | --- | --- | --- | --- |
| Colourless | 5.4 | 0.3 | Cl.Oc1ccc(Cl)c(-c2ccc3nc(Nc4ccc(OCCN5CCCC5)cc4)nn3c2)c1 [compound 5, 4-Chloro-3-{2-[4-(2-pyrrolidin-1-yl-ethoxy)-phenylamino]-[1,2,4]triazolo[1,5-a]pyridin-6-yl}-phenol, hydrochloride] | 71 |
| Colourless | 1 | 0.1 | Cc1cc(-c2cc(O)ccc2Cl)cn2nc(Nc3ccc(OCCN4CCCC4)cc3)nc12.Cl [compound 9, 4-Chloro-3-{8-methyl-2-[4-(2-pyrrolidin-1-yl-ethoxy)-phenylamino]-[1,2,4]triazolo[1,5-a]pyridin-6-yl}-phenol, hydrochloride] | – |
| Colourless | 2 | 0.2 | Cl.Oc1ccc(Cl)c(-c2ccn3nc(Nc4ccc(OCCN5CCCC5)cc4)nc3c2)c1 [compound 10, 4-Chloro-3-{2-[4-(2-pyrrolidin-1-yl-ethoxy)-phenylamino]-[1,2,4]triazolo[1,5-a]pyridin-7-yl}-phenol, hydrochloride] | – |
| Colourless | 0.1 | 0.01 | Oc1ccc(Cl)c(-c2ccc3nc(Nc4cccc(OCCN5CCCC5)c4)nn3c2)c1 [compound 16, 4-Chloro-3-{2-[3-(2-pyrrolidin-1-yl-ethoxy)-phenylamino]-[1,2,4]triazolo[1,5-a]pyridin-6-yl}-phenol] | – |

The next lines start with the compound.

| Structure (SMILES) | Colour (Colour of compound) | Soiubility (pH 5) in mg/ml [2] [mg/ml] | Solubility (pH 5) in % [2] [%] | reduction of vascular leakage compared to control [1] [%] |
| --- | --- | --- | --- | --- |
| CN(C)[C@@H]1CCN(C(=O)COc2ccc(Nc3nc4ccc(-c5cc(O)ccc5Cl)cn4n3)cc2)C1.Cl [compound 6, 2-{4-[6-(2-Chloro-5-hydroxy-phenyl)-[1,2,4]triazolo[1,5-a]pyridin-2-ylamino]-phenoxy}-1-((R)-3-dimethylamino-pyrrolidin-1-yl)-ethanone, hydrochloride] | Colourless | 0.9 | 0.1 | – |
| O=C1N(CCN2CCCC2)CCN1c1ccc(Nc2nc3ccc(-c4cc(O)ccc4Cl)cn3n2)cc1 [compound 7, 1-{4-[6-(2-Chloro-5-hydroxy-phenyl)-[1,2,4]triazolo[1,5-a]pyridin-2-ylamino]-phenyl}-3-(2-pyrrolidin-1-yl-ethyl)-imidazolidin-2-one] | Colourless | 0.22 | 0.022 | – |
| Oc1ccc(Cl)c(-c2ccc3nc(Nc4cccc(OCCN5CCOCC5)c4)nn3c2)c1 [compound 12, 4-Chloro-3-{2-[3-(2-morpholin-4-yl-ethoxy)-phenylamino]-[1,2,4]triazolo[1,5-a]pyridin-6-yl}-phenol] | Colourless | 0.2 | 0.02 | – |
| CN(C)CCOc1ccc(Nc2nc3ccc(-c4cc(O)ccc4Cl)cn3n2)cc1 [compound 14, 4-Chloro-3-{2-[4-(2-dimethylamino-ethoxy)-phenylamino]-[1,2,4]triazolo[1,5-a]pyridin-6-yl}-phenol] | Colourless | >10 | >1 | – |
| CN(C)CCOc1cccc(Nc2nc3ccc(-c4cc(O)ccc4Cl)cn3n2)c1 [compound 15, 4-Chloro-3-{2-[3-(2-dimethylamino-ethoxy)-phenylamino]-[1,2,4]triazolo[1,5-a]pyridin-6-yl}-phenol] | Colourless | 0.7 | 0.07 | – |
